According to US11180504B2 (ORCHID PHARMA LTD., priority 2016, dated 2021):
≈ marks a conversion by molar mass, not a printed value.

Legend:
[1] = system: methicillin-sensitive Staphylococcus aureus; assay: MIC by broth micro-dilution (CLSI), methicillin-sensitive S. aureus; format: cell-based; details: Staphylococcus aureus, ATCC 29213 / MSSA, MSSA S. aureus ATCC29213; read-out: MIC
[2] = system: extended spectrum β lactamase (ESBL) SHV18 producing Klebsiella pneumoniae; assay: MIC by broth micro-dilution (CLSI), ESBL SHV18 producing K. pneumoniae; format: cell-based; details: Klebsiella pneumoniae, ATCC700603, 22 h, ESBL +ve (SHV-18) K. pneumoniae ATCC700603; read-out: MIC
[3] = system: carbapenem sensitive Escherichia coli; assay: MIC by broth micro-dilution (CLSI), carbapenem sensitive E. coli; format: cell-based; details: Escherichia coli, ATCC25922, ESBL −ve E. coli ATCC25922; read-out: MIC
[4] = system: carbapenem sensitive Pseudomonas aeruginosa; assay: MIC by broth micro-dilution (CLSI), carbapenem sensitive P. aeruginosa; format: cell-based; details: Pseudomonas aeruginosa, ATCC27853, Meropenem susceptible P. aeruginosa ATCC27853; read-out: MIC
[5] = system: carbapenemase producing K. pneumoniae; assay: MIC by broth micro-dilution (CLSI), carbapenemase producing K. pneumoniae; format: cell-based, Klebsiella pneumoniae; details: Klebsiella pneumoniae, ATCCBAA1705, KPC-2 K. pneumoniae ATCC BAA-1705; read-out: MIC

SMILES | MIC [1] | MIC [2] | MIC [3] | MIC [4] | MIC [5]
CCOC(=O)N[C@H](C)[C@H]1C(=O)N2C(C(=O)O)=C(S[C@@H]3CN[C@H](C(=O)N(C)C)C3)[C@H](C)[C@H]12 [Example 15] | 2 µg/mL (≈ 4.4 µM) | 16 µg/mL (≈ 35.2 µM) | 1 µg/mL (≈ 2.2 µM) | 128 µg/mL (≈ 282 µM) | 16 µg/mL (≈ 35.2 µM)
C[C@@H](NS(=O)(=O)Cc1ccccc1)[C@H]1C(=O)N2C(C(=O)O)=C(S[C@@H]3CN[C@H](C(=O)N(C)C)C3)[C@H](C)[C@H]12 [Example 16] | 4 µg/mL (≈ 7.45 µM) | 64 µg/mL (≈ 119 µM) | 4 µg/mL (≈ 7.45 µM) | > 128 µg/mL | 16 µg/mL (≈ 29.8 µM)
C[C@@H](NC(=O)C1(C(F)(F)F)CC1)[C@H]1C(=O)N2C(C(=O)O)=C(S[C@@H]3CN[C@H](C(=O)N(C)C)C3)[C@H](C)[C@H]12 [Example 17] | 4 µg/mL (≈ 7.71 µM) | > 128 µg/mL | 16 µg/mL (≈ 30.9 µM) | 128 µg/mL (≈ 247 µM) | 32 µg/mL (≈ 61.7 µM)
CCCCS(=O)(=O)N[C@H](C)[C@H]1C(=O)N2C(C(=O)O)=C(S[C@@H]3CN[C@H](C(=O)N(C)C)C3)[C@H](C)[C@H]12 [Example 18] | 8 µg/mL (≈ 15.9 µM) | 64 µg/mL (≈ 127 µM) | 4 µg/mL (≈ 7.96 µM) | 32 µg/mL (≈ 63.7 µM) | 8 µg/mL (≈ 15.9 µM)
C[C@@H](NS(=O)(=O)C(F)(F)F)[C@H]1C(=O)N2C(C(=O)O)=C(S[C@@H]3CN[C@H](CNS(N)(=O)=O)C3)[C@H](C)[C@H]12 [Example 19] | 1 µg/mL (≈ 1.81 µM) | 8 µg/mL (≈ 14.5 µM) | 1 µg/mL (≈ 1.81 µM) | 128 µg/mL (≈ 232 µM) | > 128 µg/mL
CCOC(=S)N[C@H](C)[C@H]1C(=O)N2C(C(=O)O)=C(S[C@@H]3CN[C@H](C(=O)N(C)C)C3)[C@H](C)[C@H]12 [Example 20] | 2 µg/mL (≈ 4.25 µM) | 8 µg/mL (≈ 17 µM) | 1 µg/mL (≈ 2.12 µM) | 128 µg/mL (≈ 272 µM) | 16 µg/mL (≈ 34 µM)

The next lines start with the values.

MIC [1] | MIC [2] | MIC [3] | MIC [4] | MIC [5] | SMILES
2 µg/mL (≈ 4.4 µM) | 4 µg/mL (≈ 8.8 µM) | 2 µg/mL (≈ 4.4 µM) | > 128 µg/mL | 4 to 16 µg/mL (≈ 8.8 to 35.2 µM) | COCC(=O)N[C@H](C)[C@H]1C(=O)N2C(C(=O)O)=C(S[C@@H]3CN[C@H](C(=O)N(C)C)C3)[C@H](C)[C@H]12 [Example 21]
2 µg/mL (≈ 4.27 µM) | 64 to 128 µg/mL (≈ 137 to 273 µM) | 8 µg/mL (≈ 17.1 µM) | > 128 µg/mL | 32 µg/mL (≈ 68.3 µM) | CC(C)OC(=O)N[C@H](C)[C@H]1C(=O)N2C(C(=O)O)=C(S[C@@H]3CN[C@H](C(=O)N(C)C)C3)[C@H](C)[C@H]12 [Example 22]
16 µg/mL (≈ 31 µM) | 1 µg/mL (≈ 1.94 µM) | 0.5 µg/mL (≈ 0.97 µM) | 32 to 128 µg/mL (≈ 62.1 to 248 µM) | 8 µg/mL (≈ 15.5 µM) | C[C@@H](NS(C)(=O)=O)[C@H]1C(=O)N2C(C(=O)O)=C(S[C@@H]3CN[C@H](C(=O)N4CCN(C)CC4)C3)[C@H](C)[C@H]12 [Example 23]
16 µg/mL (≈ 31 µM) | 1 µg/mL (≈ 1.94 µM) | 0.5 µg/mL (≈ 0.968 µM) | 32 to 64 µg/mL (≈ 61.9 to 124 µM) | 4 µg/mL (≈ 7.74 µM) | C[C@@H](NS(C)(=O)=O)[C@H]1C(=O)N2C(C(=O)O)=C(S[C@@H]3CN[C@H](C(=O)N4CCC(O)CC4)C3)[C@H](C)[C@H]12 [Example 24]
4 µg/mL (≈ 7.02 µM) | 8 µg/mL (≈ 14 µM) | 1 µg/mL (≈ 1.76 µM) | 128 µg/mL (≈ 225 µM) | 8 µg/mL (≈ 14 µM) | C[C@@H](NS(=O)(=O)C(F)(F)F)[C@H]1C(=O)N2C(C(=O)O)=C(S[C@@H]3CN[C@H](C(=O)N4CCN(C)CC4)C3)[C@H](C)[C@H]12 [Example 25]
4 µg/mL (≈ 8.29 µM) | 4 to 8 µg/mL (≈ 8.29 to 16.6 µM) | 1 µg/mL (≈ 2.07 µM) | 128 µg/mL (≈ 265 µM) | 8 µg/mL (≈ 16.6 µM) | CC(=O)OCC(=O)N[C@H](C)[C@H]1C(=O)N2C(C(=O)O)=C(S[C@@H]3CN[C@H](C(=O)N(C)C)C3)[C@H](C)[C@H]12 [Example 26]
16 µg/mL (≈ 31.8 µM) | 1 µg/mL (≈ 1.99 µM) | 0.5 µg/mL (≈ 0.995 µM) | 64 to 128 µg/mL (≈ 127 to 255 µM) | 4 µg/mL (≈ 7.96 µM) | C[C@@H](NS(C)(=O)=O)[C@H]1C(=O)N2C(C(=O)O)=C(S[C@@H]3CN[C@H](C(=O)N4CCOCC4)C3)[C@H](C)[C@H]12 [Example 27]
8 µg/mL (≈ 16.6 µM) | 2 µg/mL (≈ 4.14 µM) | 2 µg/mL (≈ 4.14 µM) | 4 to 8 µg/mL (≈ 8.29 to 16.6 µM) | 4 to 8 µg/mL (≈ 8.29 to 16.6 µM) | CCOC(=O)C(=O)N[C@H](C)[C@H]1C(=O)N2C(C(=O)O)=C(S[C@@H]3CN[C@H](C(=O)N(C)C)C3)[C@H](C)[C@H]12 [Example 28]
